{"source": "patent US20160361340A1", "about": "“TREATMENT OF CARDIAC DISEASES WITH MODULATORS OF THE HIPPO PATHWAY” (INSTITUT PASTEUR, priority 2014, published 2016)", "format_in_all_cases": "cell-based, rat", "details_in_all_cases": "primary cultures of cardiomyocytes", "key": {"[1]": {"test_system": "Fat4", "assay": "RT-qPCR control of RNA interference efficiency, Fat4", "procedure": "(§1) cDNAs were reverse transcribed from RNAs extracted in TRIzol from cell cultures and isolated hearts using the Quanti-Tect kit (Qiagen) and Superscript II Reverse Transcriptase (Life Technologies) respectively. Quantitative PCR was carried out on a StepOne System (Life Technologies) using Fast Start SYBR Green Master (Roche). Quantification of gene expression was calculated as R=2^ΔCt(control-target), with Gapdh used as a control. Primers were designed using the NCBI Primer-BLAST software. Primer sequences are listed in Supplementary Table 1.\n(§2) Primary cultures of newborn rat cardiomyocytes, performed as previously described^34, were transfected with siRNA at 10 pM using Lipofectamine RNAiMax with silencer-siRNA at 24 h and analysed at 72 h, or 96 h (FIG. 3c). Control (Ambion 4390843), Fat4 (siRNA-1: Ambion s172170, siRNA-2: […], siRNA-3 […]), Amotl1 (siRNA-1: […], siRNA-2: […], siRNA-3: […]), Yap1 (siRNA-1: Ambion s170200, siRNA-2: […], siRNA-3: […]) siRNA were used. Efficiency of the interference was controlled by RT-qPCR. In the figures, Fat4 siRNA is Fat4-siRNA-1, Yap1 siRNA is a pool of siRNA-1 to 3 and Amotl1 siRNA is a pool of siRNA-1 to 3."}, "[2]": {"test_system": "Yap1", "assay": "RT-qPCR control of RNA interference efficiency, Yap1", "procedure": "as §1, §2"}, "[3]": {"test_system": "Amotl1", "assay": "RT-qPCR control of RNA interference efficiency, Amotl1", "procedure": "as §1, §2"}}}
{"substance": "Fat4 siRNA-3: siRNA against rat Fat4, CCGUCCUUGUGUUUAACGUTT (chemistry not given here)", "values": [{"measurement": "down-regulation of Fat4 relative to Gapdh transcripts", "setting": "[1]", "value": "Efficient down-regulation"}]}
{"substance": "Yap1 siRNA-2: siRNA against rat Yap1, GUCAGAGAUACUUCUUAAATT (chemistry not given here)", "values": [{"measurement": "down-regulation of Yap1 relative to Gapdh transcripts", "setting": "[2]", "value": "Efficient down-regulation"}]}
{"substance": "Fat4 siRNA-2: siRNA against rat Fat4, CCUGUACCCUGAGUAUUGATT (chemistry not given here)", "values": [{"measurement": "down-regulation of Fat4 relative to Gapdh transcripts", "setting": "[1]", "value": "Efficient down-regulation"}]}
{"substance": "Amotl1 siRNA-2: siRNA against rat Amotl1, GAGUAUCUCAGAGGCCUAUTT (chemistry not given here)", "values": [{"measurement": "down-regulation of Amotl1 relative to Gapdh transcripts", "setting": "[3]", "value": "Efficient down-regulation"}]}
{"substance": "Amotl siRNA-1: siRNA against rat Amotl1, AUCUCUACCAUUUGUUGGGTT (chemistry not given here)", "values": [{"measurement": "down-regulation of Amotl1 relative to Gapdh transcripts", "setting": "[3]", "value": "Efficient down-regulation"}]}
{"substance": "Yap1 siRNA-3: siRNA against rat Yap1, GGAGAAGUUUACUACAUAATT (chemistry not given here)", "values": [{"measurement": "down-regulation of Yap1 relative to Gapdh transcripts", "setting": "[2]", "value": "Efficient down-regulation"}]}
{"substance": "Amotl1 siRNA-3: siRNA against rat Amotl1, CAUCACAUGUCCCAGAAUATT (chemistry not given here)", "values": [{"measurement": "down-regulation of Amotl1 relative to Gapdh transcripts", "setting": "[3]", "value": "Efficient down-regulation"}]}
